This note sets out measurements from patent publication US4217355A, “Amide therapeutic agents” (Pfizer Inc., priority 1978, dated 1980).

Structures are written as SMILES.

Assay [1] deals with murine thymus cells. Briefly: lymphocyte stimulation assay (LSA), in vitro lymphocyte proliferation of murine thymus cells cultured in the presence of Concanavalin A. Type of assay: cell-based, male C57B1/6 mice. The conditions noted are these: in vitro; Con A present; 48 hours at 37° C.; score at drug level with maximum activity. The text has this: On the other hand, the activity of the compounds of the present invention, as immunoregulator agents, is based on a study of their ability to stimulate, in vitro, the lymphocyte proliferation of murine thymus cells cultured in the presence of Concanavalin A (Con A) by employing the general evaluation procedure of V. J. Merluzzi et al., as described in the Journal of Clinical and Experimental Immunology, Vol. 22, p. 486 (1975).
486 (1975). The cells were derived from male C57B1/6 mice of from 6-8 weeks age, purchased from the Jackson Laboratories of Bar Harbor, Maine and the Con A was obtained from Sigma Chemicals of St. Louis, Missouri. Each cell culture (consisting of 0.10 ml. thymus cells stock solution, 0.05 ml. of Con A stock solution and 0.05 ml. of drug solution) was performed in quadruplicate and cellular proliferation was measured, after 48 hours of incubation at 37° C., by pulsing each culture with ^3 H-thymidine (0.01 ml. of specific activity 1.9 C/mM, obtained from Schwarz-Mann, Inc. of Orangeburg, N.Y.) and then determining the incorporation of ^3 H-thymidine into cellular desoxyribonucleic acid (DNA) by an assessment of radioactivity using a liquid scintillation counter.

Assay [2] has as its system carrageenin-induced edema in the hind paw. Briefly: carrageenin-induced rat food edema test (inhibition of edema formation in the hind paw). It counts as in vivo, male albino rats. The following applies: for % Inhibition of edema formation / % Inhibition of edema formation (swelling): rat, oral; for % Inhibition of edema formation (swelling): 1.0 mg./kg. The method, then:
A. Winter et al., Proc. Soc. Exp. Biol. Med., Vol. 111, p.
A. Winter et al., as earlier reported in the Proceedings of the Society of Experimental Biology and Medicine, Vol. 111, p. 544 (1962). In this test, anti-inflammatory activity is determined as the percent inhibition of edema formation in the hind paw of male albino rats (weighing 150-190 g.) in response to a sub-plantar injection of carrageenin. The carrageenin is injected as a 1% aqueous suspension (0.05 ml.) one hour after oral administration of the drug, which is normally given in the form of an aqueous solution. Edema formation is then assessed three hours after the carrageenin injection by measuring the volume of the injected paw initially as well as at the three-hour mark. The increase in volume three hours after carrageenin injection constitutes the individual response.
The following N-(2-thiazolyl)amides were tested for anti-inflammatory activity in rats, using the standard carrageen-ininduced rat food edema test, according to the procedure essentially described by C. A. Winter et al., as first reported in the Proceedings of the Society for Experimental Biology and Medicine, Vol. 111, p. 544 (1962). […]
On the technique in general: Carrageenan injected into the paw causes an acute inflammation.

Assay [3] relates to inflammation in adrenalectomized animals. The assay can be described thus: anti-inflammatory activity in adrenalectomized animals. It counts as in vivo, rats. The text has this:
As previously indicated, the N-(2-thiazolyl)amide compounds of the present invention are all readily adapted to therapeutic use as anti-inflammatory agents and as immunoregulators, particularly in view of their ability to reduce the swelling and relieve the pain caused by arthritic and other inflammatory disorders that are normally associated with such basic ailments as rheumatoid arthritis and the like. […] A. Winter et al., Proc. Soc. Exp. Biol. Med., Vol. 111, p.

Setting [4] is: 33 mg./kg., three hours after carrageenin injection.

`CNCC(=O)Nc1nccs1` [X=H, R1=H, R2=methyl, N-(2-thiazolyl)-α-methylaminoacetamide]: the “LSA Activity” value in assay [1] is “+++ (those having an activity greater than levamisole (27,000±1,000 cpm) were scored as +++)”. Further, the “% Inhibition of edema formation” value in assay [2] (setting [4]) is given as 54%.
For `O=C(CNCc1ccccc1)Nc1nccs1` [X=H, R1=H, R2=benzyl, N-(2-thiazolyl)-α-benzylaminoacetamide], the “anti-inflammatory activity in adrenalectomized animals” value in assay [3] was “retaining its extremely potent anti-inflammatory activity in adrenalectomized animals to a significantly high degree”. Moreover, in assay [1], the “LSA Activity” value was “+++ (those having an activity greater than levamisole (27,000±1,000 cpm) were scored as +++)”. Besides, the “% Inhibition of edema formation (swelling)” value in assay [2] was 35%. In assay [2] (setting [4]), the “% Inhibition of edema formation” value amounted to 52%. In addition, in assay [2] (rats, tested orally), the “oral dose levels at which the non-steroidal therapeutic effect is exhibited” value fell in the range of 0.33 to 33 mg/kg.
Take `O=C(CNCCc1ccccc1)Nc1nccs1` [X=H, R1=H, R2=β-phenylethyl, N-(2-thiazolyl)-α-(β-phenylethylamino)acetamide]: in assay [1], the “LSA Activity” value is “++ (those equal to levamisole (22,000±900 cpm) were scored as ++)”. Further, the “% Inhibition of edema formation” value in assay [2] (setting [4]) was 53%.
With `CNCC(=O)Nc1nc(C)cs1` [X=CH3, R1=H, R2=methyl, N-(4-methyl-2-thiazolyl)-α-methylaminoacetamide], the “LSA Activity” value in assay [1] is listed as “+++ (those having an activity greater than levamisole (27,000±1,000 cpm) were scored as +++)”. Also, the “% Inhibition of edema formation” value in assay [2] (setting [4]) amounted to 53%.
For `O=C(Nc1nccs1)C1CCCCN1` (centres unmarked) [X=H, R=2-piperidyl, N-(2-thiazolyl)piperidine-2-carboxamide] the same measures were “+++ (those having an activity greater than levamisole (27,000±1,000 cpm) were scored as +++)” and 55%.
In the same order, the values of `O=C(CNCc1ccc(F)cc1)Nc1nccs1` [X=H, R1=H, R2=p-fluorobenzyl, N-(2-thiazolyl)-α-(p-fluorobenzylamino)acetamide] are “+++ (those having an activity greater than levamisole (27,000±1,000 cpm) were scored as +++)” and 48%.
For `Cl.O=C(CNCc1ccccc1)Nc1nccs1` [N-(2-thiazolyl)-α-benzylaminoacetamide hydrochloride], in assay [2], the “% Inhibition of edema formation (swelling)” value worked out at 35%. Besides, the “% Inhibition of edema formation” value in assay [2] (3.3 mg./kg.) worked out at 47%; in assay [2] (10 mg./kg.) it was 54%.
For `O=C(Nc1nccs1)C1CCCN1` (centres unmarked) [X=H, R=2-pyrrolidinyl, N-(2-thiazolyl)pyrrolidine-2-carboxamide], in assay [1], the “LSA Activity” value was “+++ (those having an activity greater than levamisole (27,000±1,000 cpm) were scored as +++)”. The “% Inhibition of edema formation” value in assay [2] (setting [4]) turned out to be 48%.
